Drawing on patent publication US12312347B2, “Azaindole derivative and use thereof as FGFR and C-Met inhibitor” (Wuxi Life Fountain Biotech Co., Ltd, priority 2018, dated 2025), this text covers IC50 for 19 molecules.

As a reminder, the IC50 is the concentration that gives 50% inhibition. Lower therefore signals higher potency.

Counter-ions that a name gives are not always drawn.

T1 sequence (P08581 25-1390): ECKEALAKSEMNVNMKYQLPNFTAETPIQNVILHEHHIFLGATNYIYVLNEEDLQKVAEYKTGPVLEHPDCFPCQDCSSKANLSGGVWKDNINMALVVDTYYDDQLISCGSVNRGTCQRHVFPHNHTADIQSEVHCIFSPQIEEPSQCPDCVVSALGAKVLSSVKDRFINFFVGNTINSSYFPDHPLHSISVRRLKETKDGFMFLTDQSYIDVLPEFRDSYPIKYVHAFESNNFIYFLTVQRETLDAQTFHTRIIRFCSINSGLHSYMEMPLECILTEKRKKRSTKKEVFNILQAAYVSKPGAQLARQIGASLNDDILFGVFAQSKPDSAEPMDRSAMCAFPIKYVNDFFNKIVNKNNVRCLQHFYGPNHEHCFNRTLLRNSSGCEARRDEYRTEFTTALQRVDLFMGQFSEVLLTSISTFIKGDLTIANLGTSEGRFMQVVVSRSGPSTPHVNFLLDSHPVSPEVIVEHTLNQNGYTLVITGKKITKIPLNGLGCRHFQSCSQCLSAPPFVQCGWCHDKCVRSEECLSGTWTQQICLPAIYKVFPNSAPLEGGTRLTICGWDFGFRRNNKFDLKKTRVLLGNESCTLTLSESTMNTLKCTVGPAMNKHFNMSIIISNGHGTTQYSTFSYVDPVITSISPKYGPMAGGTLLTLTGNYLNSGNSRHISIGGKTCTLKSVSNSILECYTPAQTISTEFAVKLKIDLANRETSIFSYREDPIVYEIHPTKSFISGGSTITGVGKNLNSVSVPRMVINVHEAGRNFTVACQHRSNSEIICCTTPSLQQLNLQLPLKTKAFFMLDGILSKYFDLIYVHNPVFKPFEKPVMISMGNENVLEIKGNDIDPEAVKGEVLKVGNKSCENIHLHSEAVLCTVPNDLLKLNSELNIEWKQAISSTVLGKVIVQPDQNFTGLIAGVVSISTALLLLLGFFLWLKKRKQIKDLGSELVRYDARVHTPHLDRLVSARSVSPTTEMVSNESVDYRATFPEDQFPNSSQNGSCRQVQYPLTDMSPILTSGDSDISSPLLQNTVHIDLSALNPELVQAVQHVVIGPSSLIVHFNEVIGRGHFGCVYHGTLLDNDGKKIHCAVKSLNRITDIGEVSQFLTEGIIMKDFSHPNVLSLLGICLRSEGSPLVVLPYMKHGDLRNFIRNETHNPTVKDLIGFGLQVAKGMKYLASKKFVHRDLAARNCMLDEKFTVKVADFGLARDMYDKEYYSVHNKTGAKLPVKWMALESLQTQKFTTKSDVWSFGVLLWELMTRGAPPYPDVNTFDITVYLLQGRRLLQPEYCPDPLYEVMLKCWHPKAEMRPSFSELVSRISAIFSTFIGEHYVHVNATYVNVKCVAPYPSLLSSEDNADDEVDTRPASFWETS
T3 sequence (P11362 22-822): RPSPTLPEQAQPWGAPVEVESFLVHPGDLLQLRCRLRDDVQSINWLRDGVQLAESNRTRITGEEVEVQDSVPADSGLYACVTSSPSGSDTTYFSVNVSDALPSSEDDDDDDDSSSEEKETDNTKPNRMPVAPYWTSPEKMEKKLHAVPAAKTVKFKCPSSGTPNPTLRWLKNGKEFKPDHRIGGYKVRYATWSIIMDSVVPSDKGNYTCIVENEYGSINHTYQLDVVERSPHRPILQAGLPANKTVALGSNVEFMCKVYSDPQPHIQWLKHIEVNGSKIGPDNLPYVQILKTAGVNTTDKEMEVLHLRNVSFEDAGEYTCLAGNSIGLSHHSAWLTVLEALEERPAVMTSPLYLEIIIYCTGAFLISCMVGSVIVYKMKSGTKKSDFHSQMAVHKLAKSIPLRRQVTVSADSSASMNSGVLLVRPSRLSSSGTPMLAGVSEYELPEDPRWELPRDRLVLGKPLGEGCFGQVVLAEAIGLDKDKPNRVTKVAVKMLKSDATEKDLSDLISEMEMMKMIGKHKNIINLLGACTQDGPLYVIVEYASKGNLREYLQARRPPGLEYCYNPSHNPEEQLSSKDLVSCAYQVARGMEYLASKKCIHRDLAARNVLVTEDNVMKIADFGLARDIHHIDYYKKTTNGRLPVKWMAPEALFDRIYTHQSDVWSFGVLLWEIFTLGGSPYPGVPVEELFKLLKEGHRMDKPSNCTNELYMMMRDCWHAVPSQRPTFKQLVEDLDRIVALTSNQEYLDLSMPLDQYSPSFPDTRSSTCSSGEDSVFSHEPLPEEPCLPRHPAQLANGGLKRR

The first test concerns the target T1, human c-Met (Homo sapiens, UniProt P08581).
T1 construct: purchased Invitrogen PV3143
The test can be described thus: 33P isotope-labeled kinase activity test, c-Met. Type of test: biochemical. The note with it: ATP 10 μM. As for the experimental part:
(§1) The inhibitory activities of the tested compounds on human FGFR1, FGFR4, and c-Met were evaluated by the IC50 values measured using ^33P isotope-labeled kinase activity test (Reaction Biology Corp).
(§2) Buffer condition: 20 mM Hepes (pH 7.5), 10 mM MgCl2, 1 mM EGTA, 0.02% Brij35, 0.02 mg/mL BSA, 0.1 mM Na3VO4, 2 mM DTT, 1% DMSO.
(§3) Test procedure: The test compounds were dissolved in DMSO at room temperature and formulated to be 10 mM solutions for later use. The substrates were dissolved in freshly prepared buffer, and kinases to be tested were added and mixed well. The test compounds dissolved in DMSO were added to the above mixed reaction solutions by acoustic technique (Echo 550). The concentration of the compound in reaction solution was 1 μM, 0.25 μM, 0.156 μM, 3.91 nM, 0.977 nM, 0.244 nM, 0.061 nM, 0.0153 nM, 0.00381 nM or 10 μM, 2.50 μM, 0.62 μM, 0.156 μM, 39.1 nM, 9.8 nM, 2.4 nM, 0.61 nM, 0.15 nM, 0.038 nM. After incubation for 15 min, ^33P-ATP (activity 0.01 μCi/μL, corresponding concentrations are listed in Table 1) was added to start the reaction. Supplier item number, batch number, as well as the concentration information in the reaction solution of FGFR1, FGFR4, c-Met and substrates thereof are listed in Table 1. […] The kinase activity data are expressed by comparison between the kinase activity in the test compound group and the kinase activity in the blank group (containing DMSO only). IC50 values were obtained by curve fitting with Prism4 software (GraphPad).
For the molecule `COc1cc(OC)c(F)c(Cc2n[nH]c3ncc(-c4cnn(CCO)c4)cc23)c1F` [Trifluoroacetate salt of embodiment 1], the midpoint of inhibition, the IC50, lay at 1290 nM. Same read-out and setting: in the case of `COc1cc(OC)c(F)c(Cc2c[nH]c3ncc(-c4cnn(C5CCNCC5)c4)nc23)c1F` [Trifluoroacetate salt of embodiment 5] it was 47.2 nM. Still for that read-out and setting: in the case of `COc1ccc(Cl)c(Cc2c[nH]c3ncc(-c4cnn(C5CCNCC5)c4)cc23)c1Cl` [Trifluoroacetate salt of embodiment 10] it was 8.7 nM; in that of `CCN1CCC(n2cc(-c3cnc4[nH]cc(Cc5c(F)c(OC)cc(OC)c5F)c4c3)cn2)CC1` [Trifluoroacetate salt of embodiment 12], 3.17 nM; in that of `COc1cc(OC)c(F)c(Cc2c[nH]c3ncc(-c4cnn(C5CCN(C(C)=O)CC5)c4)cc23)c1F` [Trifluoroacetate salt of embodiment 17], 11.6 nM. Same read-out and setting: the same measure for `COc1cc(OC)c(F)c(Cc2c[nH]c3ncc(-c4cnn(C5CCN(S(C)(=O)=O)CC5)c4)cc23)c1F` [Trifluoroacetate salt of embodiment 18]: 16.1 nM; for `CNC(=O)c1cc(Cc2c[nH]c3ncc(-c4cnn(C5CCNCC5)c4)cc23)c(Cl)c(OC)c1` [Trifluoroacetate salt of embodiment 20]: 12 nM. In turn, `COc1cc(OC)c(F)c(Cc2c[nH]c3ncc(-c4cnn(C5CCOCC5)c4)cc23)c1F` [Trifluoroacetate salt of embodiment 22] had an IC50 of 23.8 nM. Still for that read-out and setting: in the case of `COc1cc(OC)c(F)c(Cc2c[nH]c3ncc(-c4cnn(C5CNC5)c4)cc23)c1F` [Trifluoroacetate salt of embodiment 24] it was 76.5 nM. Same read-out and setting: the same measure for `COc1cc(OC)c(F)c(Cc2c[nH]c3ncc(-c4cnn(C5CN(C(C)=O)C5)c4)cc23)c1F` [Trifluoroacetate salt of embodiment 26]: 13.8 nM; for `COc1cc(OC)c(F)c(Cc2c[nH]c3ncc(-c4cnn(C5CN(CCO)C5)c4)cc23)c1F` [Trifluoroacetate salt of embodiment 27]: 6.7 nM; for `COc1cc(OC)c(F)c(Cc2c[nH]c3ncc(-c4cn(C5CCN(C)CC5)nc4C)cc23)c1F` [Trifluoroacetate salt of embodiment 35]: 14 nM. The same measure, in the same setting: the same measure for `COc1cc(OC)c(F)c(Cc2c[nH]c3ncc(-c4cn(C)nc4C#N)cc23)c1F` [Trifluoroacetate salt of embodiment 44]: 191 nM; for `COc1cc(OC)c(Cl)c(Cc2c[nH]c3ncc(-c4cnn(C5CCNCC5)c4)cc23)c1Cl` [Trifluoroacetate salt of embodiment 49]: 8.8 nM.

In turn, `COc1cc(OC)c(F)c(Cc2c[nH]c3ncc(-c4ccc(N5CCN(C)CC5)nc4)cc23)c1F` [Trifluoroacetate salt of embodiment 62] showed an IC50 of 132 nM.

For the next test, the target named is T2, human FGFR4 (Homo sapiens, UniProt P22455).
T2 construct: purchased Invitrogen P3054
T2 sequence (P22455 22-802): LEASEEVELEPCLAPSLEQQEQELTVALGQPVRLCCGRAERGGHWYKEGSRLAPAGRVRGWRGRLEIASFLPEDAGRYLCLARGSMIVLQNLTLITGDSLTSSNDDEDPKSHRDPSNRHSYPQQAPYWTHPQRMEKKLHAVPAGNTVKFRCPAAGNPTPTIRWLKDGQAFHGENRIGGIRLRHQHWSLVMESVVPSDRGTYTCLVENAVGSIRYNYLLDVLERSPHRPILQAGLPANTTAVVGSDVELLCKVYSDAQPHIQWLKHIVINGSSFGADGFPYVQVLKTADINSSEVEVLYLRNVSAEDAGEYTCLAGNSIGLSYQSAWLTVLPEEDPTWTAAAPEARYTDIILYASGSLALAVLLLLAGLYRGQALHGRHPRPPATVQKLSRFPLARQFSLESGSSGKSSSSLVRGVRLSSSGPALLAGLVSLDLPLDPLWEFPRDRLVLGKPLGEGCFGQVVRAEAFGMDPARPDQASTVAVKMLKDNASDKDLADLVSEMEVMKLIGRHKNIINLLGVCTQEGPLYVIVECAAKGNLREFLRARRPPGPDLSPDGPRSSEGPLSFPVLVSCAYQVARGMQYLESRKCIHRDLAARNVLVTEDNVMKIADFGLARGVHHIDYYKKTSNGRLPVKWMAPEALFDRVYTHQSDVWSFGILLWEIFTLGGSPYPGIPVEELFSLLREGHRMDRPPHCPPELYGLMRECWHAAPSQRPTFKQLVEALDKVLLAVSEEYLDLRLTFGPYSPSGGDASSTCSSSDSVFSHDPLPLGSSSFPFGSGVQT
The test can be described thus: 33P isotope-labeled kinase activity test, FGFR4. It is filed as biochemical. The note with it: ATP 100 μM. As for the experimental part: as §1, §2, §3
Consider `COc1cc(OC)c(F)c(Cc2n[nH]c3ncc(-c4cnn(CCO)c4)cc23)c1F` [Trifluoroacetate salt of embodiment 1], for which half-maximal inhibition (IC50) required 39.7 nM. On the same count and under the same terms, in the case of `COc1cc(OC)c(F)c(Cc2c[nH]c3ncc(-c4cnn(C5CCNCC5)c4)nc23)c1F` [Trifluoroacetate salt of embodiment 5] it was 20.3 nM. Same read-out and setting: in the case of `COc1ccc(Cl)c(Cc2c[nH]c3ncc(-c4cnn(C5CCNCC5)c4)cc23)c1Cl` [Trifluoroacetate salt of embodiment 10] it was 1710 nM.

With `COc1cc(Cc2c[nH]c3ncc(-c4cnn(C5CCNCC5)c4)cc23)cc(OC)c1` [Trifluoroacetate salt of embodiment 11], the IC50 stood at 550 nM. Still for that read-out and setting: in the case of `CCN1CCC(n2cc(-c3cnc4[nH]cc(Cc5c(F)c(OC)cc(OC)c5F)c4c3)cn2)CC1` [Trifluoroacetate salt of embodiment 12] it was 36 nM; in that of `COc1cc(OC)c(F)c(Cc2c[nH]c3ncc(-c4cnn(C5CCN(C(C)=O)CC5)c4)cc23)c1F` [Trifluoroacetate salt of embodiment 17], 7.5 nM. Molecule `COc1cc(OC)c(F)c(Cc2c[nH]c3ncc(-c4cnn(C5CCN(S(C)(=O)=O)CC5)c4)cc23)c1F` [Trifluoroacetate salt of embodiment 18] gave an IC50 of 29.7 nM. Same read-out and setting: the same measure for `CNC(=O)c1cc(Cc2c[nH]c3ncc(-c4cnn(C5CCNCC5)c4)cc23)c(Cl)c(OC)c1` [Trifluoroacetate salt of embodiment 20]: 158 nM; for `COc1cc(OC)c(F)c(Cc2c[nH]c3ncc(-c4cnn(C5CCOCC5)c4)cc23)c1F` [Trifluoroacetate salt of embodiment 22]: 29.2 nM. Same read-out and setting: the same measure for `COc1cc(OC)c(F)c(Cc2c[nH]c3ncc(-c4cnn(C5CNC5)c4)cc23)c1F` [Trifluoroacetate salt of embodiment 24]: 252 nM; for `COc1cc(OC)c(F)c(Cc2c[nH]c3ncc(-c4cnn(C5CN(C(C)=O)C5)c4)cc23)c1F` [Trifluoroacetate salt of embodiment 26]: 35.3 nM; for `COc1cc(OC)c(F)c(Cc2c[nH]c3ncc(-c4cnn(C5CN(CCO)C5)c4)cc23)c1F` [Trifluoroacetate salt of embodiment 27]: 13.1 nM.

`COc1cc(OC)c(F)c(Cc2c[nH]c3ncc(-c4cn(C5CCN(C)CC5)nc4C)cc23)c1F` [Trifluoroacetate salt of embodiment 35] had an IC50 of 23.5 nM. On the same count and under the same terms, the same measure for `COc1cc(OC)c(F)c(Cc2c[nH]c3ncc(-c4cn(C)nc4C#N)cc23)c1F` [Trifluoroacetate salt of embodiment 44]: 32.3 nM. The same measure, in the same setting: in the case of `COc1cc(OC)c(Cl)c(Cc2c[nH]c3ncc(-c4cnn(C5CCNCC5)c4)cc23)c1Cl` [Trifluoroacetate salt of embodiment 49] it was 529 nM; in that of `COc1cc(OC)c(F)c(Cc2c[nH]c3ncc(-c4ccc(N5CCN(C)CC5)nc4)cc23)c1F` [Trifluoroacetate salt of embodiment 62], 8.6 nM; in that of `COc1cc(OC)c(F)c(Cc2c[nH]c3ncc(-c4cnn(CCS(C)(=O)=O)c4)cc23)c1F` [Trifluoroacetate salt of embodiment 76], 3.87 nM. Same read-out and setting: the same measure for `COc1nc(OC)c(F)c(Cc2c[nH]c3ncc(-c4cnn(CCS(C)(=O)=O)c4)cc23)c1F` [Trifluoroacetate salt of embodiment 77]: 3.41 nM.

Another test concerns the target T3, human FGFR1 (Homo sapiens, UniProt P11362).
T3 construct: purchased Invitrogen PV3146
The test can be described thus: 33P isotope-labeled kinase activity test, FGFR1. It is filed as biochemical. The note with it: ATP 5 μM. As for the experimental part: as §1, §2
as §3, with “The concentration of the compound in reaction solution was 1 μM, 0.25 μM, 0.156 μM, 3.91 nM, 0.977 nM, 0.244 nM, 0.061 nM, 0.0153 nM, 0.00381 nM or 10 μM, 2.50 μM, 0.62 μM, 0.156 μM, 39.1 nM, 9.8 nM, 2.4 nM, 0.61 nM, 0.15 nM, 0.038 nM.” left out
On to `COc1cc(OC)c(F)c(Cc2c[nH]c3ncc(-c4cncc(C5=CCNCC5)n4)cc23)c1F` [Hydrochloride of embodiment 63], for which the midpoint of inhibition, the IC50, lay at 9.41 nM. Still for that read-out and setting: the same measure for `COc1cc(Cc2c[nH]c3ncc(-c4cnn(C5CCNCC5)c4)cc23)cc(OC)c1` [Trifluoroacetate salt of embodiment 11]: 17.1 nM.
